# Reference: US20230192617A1, “AZABICYCLIC(THIO)AMIDES AS FUNGICIDAL COMPOUNDS” (Bayer CropScience Aktiengesellschaft, priority 2020, published 2023)
# Assays:
# Alternaria alternata = Alternaria alternata in vitro cell test; assay type: cell-based; settings: 120 h, 20 ppm of active ingredient, liquid culture, 5 days incubation, spectrometric measurement of mycelium growth, read-out: efficacy (inhibition of fungal growth)
# How it was run: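 Spectrometric readout of mycelial growth after 5-day incubation gauged compound effects on spore germination and growth of A. alternata in liquid medium. Compounds were delivered in DMSO at ≤1% final. Absorbance was compared with untreated controls to give inhibition.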
# Pyrenophora teres [1] = test: In vivo preventive test on Pyrenophora teres (net blotch on barley); settings: 240 h, 500 ppm of active ingredient, preventive spray on barley, evaluated 10 days after inoculation, read-out: efficacy
# How it was run: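 Net blotch spores were sprayed onto barley leaves one day after foliar treatment with water-diluted DMSO/acetone/Tween 80 formulations (solvent-only controls). Plants were kept at 20° C: first 48 hours at 100% relative humidity, then 8 days at 70-80%.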
# [2] = tested on: Colletotrichum lindemuthianum; test: B-8. Colletotrichum lindemuthianum in vitro cell test; assay type: cell-based; settings: 144 h, 20 ppm of active ingredient, 6 days incubation, liquid culture, absorbance, read-out: efficacy (inhibition of fungal growth)
# How it was run: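 Liquid-culture germination/growth test: compounds in ≤1% final DMSO were added to spore-containing medium. Fungal growth was quantified spectrophotometrically after 6 days of incubation and expressed as inhibition versus untreated controls.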
# Septoria tritici = test: B-9. Septoria tritici in vitro cell test; assay type: cell-based; settings: Zymoseptoria tritici, 168 h; 20 ppm of active ingredient; 7 days incubation; liquid culture, absorbance; read-out: efficacy (inhibition of fungal growth)
# How it was run: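 Compounds from DMSO stocks (final DMSO ≤1%) were added to liquid medium containing S. tritici spores to test inhibition of germination and mycelial growth. After 7 days, mycelium growth was read spectrometrically and inhibition derived from absorbance versus fungicide-free control wells.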
# Sphaerotheca fuliginea = test: In vivo preventive test on Sphaerotheca fuliginea (powdery mildew on cucurbits); settings: Podosphaera fuliginea, 192 h; 500 ppm of active ingredient; preventive spray on gherkin; evaluated 8 days after inoculation; read-out: efficacy
# How it was run: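 This is a preventive spray test on gherkin seedlings, with compound formulated in DMSO/acetone/Tween 80 in water and solvent-only controls. Spore inoculation followed one day after treatment. Incubation lasted 8 days at 20 °C, 70–80% RH.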
# Botrytis cinerea = test: In vivo preventive test on Botrytis cinerea (grey mould); settings: 500 ppm of active ingredient, preventive spray on gherkin or cabbage, evaluated 4 to 5 days after inoculation, read-out: efficacy
# How it was run: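 Preventive spray on cabbage or gherkin seedlings, with compound formulated in DMSO/acetone/Tween 80 and water-diluted, preceded spore inoculation by 24 hours. Cabbage was held 4 to 5 days at 20° C., 100% relative humidity; gherkin 4 to 5 days at 17° C., 90% relative humidity.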
# Pyrenophora teres [3] = test: B-10. Pyrenophora teres in vitro cell test; assay type: cell-based; settings: 144 h, 20 ppm of active ingredient, 6 days incubation, liquid culture, absorbance, read-out: efficacy (inhibition of fungal growth)
# How it was run: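 Liquid-culture assay on a P. teres spore suspension with compounds added to the medium from DMSO solutions, final DMSO ≤1%. Mycelium growth read spectrometrically after 6 days. Inhibition calculated from absorbance against untreated control wells.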
# [4] = Measurement of Log P values by HPLC on reversed phase columns (EEC directive 79/831 Annex V.A8); assay type: physicochemical; settings: reversed phase HPLC column, method [a]: LC-UV, acidic range, 0.1% formic acid in water and acetonitrile as eluent
# How it was run: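 Log P derived from retention on reversed-phase columns (EEC directive 79/831 Annex V.A8), LC-UV, acetonitrile gradient 10% to 95% against water containing 0.1% formic acid, 0.001 M ammonium acetate, or 0.1% phosphoric acid; several values per method separated by "+".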
Structure (SMILES),inhibition at 20 ppm (Alternaria alternata) [%],pest or weed control at 500 ppm (Pyrenophora teres [1]) [%],inhibition at 20 ppm [2] [%],inhibition at 20 ppm (Septoria tritici) [%],pest or weed control at 500 ppm (Sphaerotheca fuliginea) [%],pest or weed control at 500 ppm (Botrytis cinerea) [%],inhibition at 20 ppm (Pyrenophora teres [3]) [%],chromatographic logP [4]
O=C(NCC(F)c1ccc(Cl)cc1Cl)c1c(Oc2cccc(C(F)(F)F)c2)nnc2c1COCC2 (stereo not drawn) [I-126],90 to 100,70 to 79,90 to 100,90 to 100,90 to 100,90 to 100,90 to 100,3.75
Cc1cc(Br)ccc1C(F)(F)CNC(=O)c1c(Oc2cccc(C(F)(F)F)c2)nnc2c1COCC2 [I-127],90 to 100,70 to 79,90 to 100,90 to 100,90 to 100,90 to 100,90 to 100,3.94
Cc1ccc(C(F)(F)CNC(=O)c2c(Oc3cccc(Br)c3F)nnc3c2CCCC3)c(C)c1 [I-128],90 to 100,90 to 100,90 to 100,90 to 100,90 to 100,90 to 100,90 to 100,4.05
Cc1ccc(C(F)(F)CNC(=O)c2c(Oc3cccc(C(F)F)c3)nnc3c2CCCC3)c(C)c1 [I-129],90 to 100,90 to 100,90 to 100,90 to 100,90 to 100,90 to 100,90 to 100,3.68
Cc1ccc(C(F)(F)CNC(=O)c2c(Oc3cccc(Cl)c3F)nnc3c2CCCC3)c(C)c1 [I-130],90 to 100,90 to 100,90 to 100,90 to 100,90 to 100,90 to 100,90 to 100,4
Cc1ccc(C(F)(F)CNC(=O)c2c(Oc3cccc(C4CC4)c3F)nnc3c2CCCC3)c(C)c1 [I-131],90 to 100,90 to 100,90 to 100,90 to 100,90 to 100,90 to 100,90 to 100,4.23
Cc1ccc(C(F)(F)CNC(=O)c2c(Oc3cccc(C(F)(F)F)c3)nnc3c2CCC3)c(C)c1 [I-132],90 to 100,90 to 100,90 to 100,90 to 100,90 to 100,90 to 100,90 to 100,4
Cc1ccc(C(F)(F)CNC(=O)c2c(Oc3cccc(Cl)c3F)nnc3c2CCC3)c(C)c1 [I-133],90 to 100,90 to 100,90 to 100,90 to 100,90 to 100,90 to 100,90 to 100,3.89
Cc1ccc(C(F)(F)CNC(=O)c2c(Oc3cccc(C4CC4)c3F)nnc3c2CCC3)c(C)c1 [I-134],90 to 100,80 to 89,90 to 100,90 to 100,90 to 100,90 to 100,90 to 100,4.17
Cc1ccc(C(F)CNC(=O)c2c(Oc3cccc(Cl)c3F)nnc3c2CCCC3)c(C)c1 (stereo not drawn) [I-136],90 to 100,90 to 100,90 to 100,90 to 100,90 to 100,90 to 100,90 to 100,3.78
Cc1ccc(C(F)CNC(=O)c2c(Oc3cccc(C4CC4)c3F)nnc3c2CCCC3)c(C)c1 (stereo not drawn) [I-137],90 to 100,80 to 89,90 to 100,70 to 79,90 to 100,90 to 100,90 to 100,4
Cc1ccc(C(F)(F)CNC(=O)c2c(Oc3cccc(Cl)c3)nnc3c2CCCC3)c(Cl)c1 [I-139],90 to 100,80 to 89,90 to 100,90 to 100,90 to 100,90 to 100,90 to 100,3.89
"Cc1ccc(C(F)(F)CNC(=O)c2c(Oc3cccc(Cl)c3F)nnc3c2CCCC3)c(Cl)c1 [I-140, 3-(3-chloro-2-fluoro-phenoxy)-N-[2-(2-chloro-4-methyl-phenyl)-2,2-difluoro-ethyl]-5,6,7,8-tetrahydrocinnoline-4-carboxamide]",90 to 100,90 to 100,90 to 100,90 to 100,90 to 100,90 to 100,90 to 100,3.94
Cc1ccc(C(F)(F)CNC(=O)c2c(Oc3cccc(C4CC4)c3F)nnc3c2CCCC3)c(Cl)c1 [I-141],90 to 100,90 to 100,90 to 100,90 to 100,90 to 100,90 to 100,90 to 100,4.17
Cc1ccc(C(F)(F)CNC(=O)c2c(Oc3cccc(C(F)(F)F)c3)nnc3c2CCC3)c(Cl)c1 [I-142],90 to 100,90 to 100,90 to 100,90 to 100,90 to 100,90 to 100,90 to 100,3.94
Cc1ccc(C(F)(F)CNC(=O)c2c(Oc3cccc(Cl)c3F)nnc3c2CCC3)c(Cl)c1 [I-143],90 to 100,90 to 100,90 to 100,90 to 100,90 to 100,90 to 100,90 to 100,3.84
Cc1ccc(C(F)(F)CNC(=O)c2c(Oc3cccc(C4CC4)c3F)nnc3c2CCC3)c(Cl)c1 [I-144],90 to 100,80 to 89,90 to 100,80 to 89,90 to 100,90 to 100,90 to 100,4.05
Cc1cc(Cl)ccc1C(F)(F)CNC(=O)c1c(Oc2cccc(C(F)(F)F)c2)nnc2c1CCCC2 [I-145],90 to 100,90 to 100,90 to 100,90 to 100,90 to 100,90 to 100,90 to 100,4.28
Cc1cc(Cl)ccc1C(F)(F)CNC(=O)c1c(Oc2cccc(Cl)c2)nnc2c1CCCC2 [I-146],90 to 100,80 to 89,70 to 79,90 to 100,90 to 100,90 to 100,90 to 100,4.11
Cc1cc(Cl)ccc1C(F)(F)CNC(=O)c1c(Oc2cccc(Cl)c2F)nnc2c1CCC2 [I-148],90 to 100,90 to 100,80 to 89,80 to 89,90 to 100,90 to 100,90 to 100,4
O=C(NCC(F)c1ccc(Cl)cc1Cl)c1c(Oc2cccc(Cl)c2F)nnc2c1CCCC2 (stereo not drawn) [I-149],90 to 100,90 to 100,90 to 100,90 to 100,90 to 100,90 to 100,90 to 100,3.94
